Type in all cases: in vivo, Sprague-Dawley rats
The subject of assay [1] is rat offspring. Put plainly: pDEXA bone mineral density (BMD) and bone mineral content (BMC) of rat offspring after maternal diet supplementation. The conditions noted are these: for lumbar vertebra BMC with respect to Control group / lumbar vertebra BMD with respect to Control group: adolescence. The procedure: Fifty 10-week-old pregnant Sprague-Dawley rats at the eleventh day of gestation (Charles Rivers Laboratories, Orleans Cedex, France) are housed under standardized environmental conditions (22° C., relative humidity of 50%, artificial lighting on for 12 hours/day) and are given free access to deionized water during the test period. The rats are randomly divided into five groups of feeding (n=10/group): (1) Control Group (“Control”), who receives a standard purified rodent diet (SPRD); […] (3) Prebiotic group (“Prebiotic”), who receives the SPRD containing 7.5% of the total carbohydrate as inulin-type fructans (Synergy-1®, Orafti, Belgium); […] During their suckling period, the pups receive only the dam's milk. […] Sacrifices of rat pups are carried out at birth, weaning and at the end of the adolescence period. The whole bone mineral density (BMD) and bone mineral content (BMC) of the skeleton are measured at birth and at weaning by using a pDEXA densitometer (Norland Corp., Fort Atkinson, Wis., USA). In adolescent offspring, the determination of BMC and BMD are analyzed in isolated bones (femur, tibia and vertebrae). Determination of the trabecular architecture parameters (trabecular thickness, separation and number), bone length and bone volume fraction (BV/TV) is analyzed by Micro-computed tomography (micro-CT). Micro-CT analysis is carried out by the Bone & Joint Research Group (University of Southampton, UK) and cortical parameters are performed by SCANCO Medical AG (Brüttisellen, Switzerland). DEXA scan is a technique used in the clinical practice for the analysis of bone health. Two main bone properties can be measured by this technique: Bone Mineral Content (BMC) and areal Bone Mineral Density (BMD). BMC determines the mass of mineral present in the whole body or in the selected skeletal region. BMC changes reflect the result of the metabolic “mass” balance between bone formation and bone destruction. BMC represented relative to the projected bone area refers to BMD. […] The manufacturer's software for research in small animals calculates BMC and BMD for the isolated bone. Femur is measured from the femoral neck to the knee joint. Tibia is measured from the knee joint to the joint between tibia and calcaneus, also including fibula. […] Results are expressed as mean±SEM, and the probability level at which the differences are considered significant is set at p<0.05. One-way ANOVA is used to evaluate differences attributable to the diet in the different markers, previously testing the homogeneity of variances by Levene's. A posteriori post hoc tests are carried out by the Dunnet test.

Assay [2] has as its system rat offspring. Put plainly: Micro-CT trabecular architecture and bone length of rat offspring after maternal diet supplementation. The procedure:
Fifty 10-week-old pregnant Sprague-Dawley rats at the eleventh day of gestation (Charles Rivers Laboratories, Orleans Cedex, France) are housed under standardized environmental conditions (22° C., relative humidity of 50%, artificial lighting on for 12 hours/day) and are given free access to deionized water during the test period. The rats are randomly divided into five groups of feeding (n=10/group): (1) Control Group (“Control”), who receives a standard purified rodent diet (SPRD); […] (3) Prebiotic group (“Prebiotic”), who receives the SPRD containing 7.5% of the total carbohydrate as inulin-type fructans (Synergy-1®, Orafti, Belgium); […] During their suckling period, the pups receive only the dam's milk. […] Sacrifices of rat pups are carried out at birth, weaning and at the end of the adolescence period. The whole bone mineral density (BMD) and bone mineral content (BMC) of the skeleton are measured at birth and at weaning by using a pDEXA densitometer (Norland Corp., Fort Atkinson, Wis., USA). In adolescent offspring, the determination of BMC and BMD are analyzed in isolated bones (femur, tibia and vertebrae). Determination of the trabecular architecture parameters (trabecular thickness, separation and number), bone length and bone volume fraction (BV/TV) is analyzed by Micro-computed tomography (micro-CT). Micro-CT analysis is carried out by the Bone & Joint Research Group (University of Southampton, UK) and cortical parameters are performed by SCANCO Medical AG (Brüttisellen, Switzerland). Micro-computed tomography (micro-CT) is a technique for the nondestructive assessment and analysis of the three-dimensional trabecular and cortical bone structural properties. Scanning with micro-CT can be achieved at resolutions as low as 5 μm, allowing for the determination of porosities and subtle modeling and remodeling events of the bone tissue. Furthermore, true three-dimensional image reconstructions permit the assessment of bone microarchitecture as a three dimensional structure, providing critical information to images collected through histomorphometry. In the present Example, femoral, tibia and vertebra cancellous bones are assessed using Metris (XTek) Benchtop 160Xi CT scanner (University of Southampton) and vertebra cortical bone is assessed using MicroCT-40 computed tomography system (Scanco Medical, Basserdorf, Switzerland). […] Results are expressed as mean±SEM, and the probability level at which the differences are considered significant is set at p<0.05. One-way ANOVA is used to evaluate differences attributable to the diet in the different markers, previously testing the homogeneity of variances by Levene's. A posteriori post hoc tests are carried out by the Dunnet test.

Assay [3] relates to rat offspring. Put plainly: Micro-CT vertebra cortical architecture of rat offspring after maternal diet supplementation. The conditions noted are these: adolescence. The protocol:
Fifty 10-week-old pregnant Sprague-Dawley rats at the eleventh day of gestation (Charles Rivers Laboratories, Orleans Cedex, France) are housed under standardized environmental conditions (22° C., relative humidity of 50%, artificial lighting on for 12 hours/day) and are given free access to deionized water during the test period. The rats are randomly divided into five groups of feeding (n=10/group): (1) Control Group (“Control”), who receives a standard purified rodent diet (SPRD); […] (3) Prebiotic group (“Prebiotic”), who receives the SPRD containing 7.5% of the total carbohydrate as inulin-type fructans (Synergy-1®, Orafti, Belgium); […] During their suckling period, the pups receive only the dam's milk. […] Sacrifices of rat pups are carried out at birth, weaning and at the end of the adolescence period. The whole bone mineral density (BMD) and bone mineral content (BMC) of the skeleton are measured at birth and at weaning by using a pDEXA densitometer (Norland Corp., Fort Atkinson, Wis., USA). In adolescent offspring, the determination of BMC and BMD are analyzed in isolated bones (femur, tibia and vertebrae). Determination of the trabecular architecture parameters (trabecular thickness, separation and number), bone length and bone volume fraction (BV/TV) is analyzed by Micro-computed tomography (micro-CT). Micro-CT analysis is carried out by the Bone & Joint Research Group (University of Southampton, UK) and cortical parameters are performed by SCANCO Medical AG (Brüttisellen, Switzerland). In the present Example, femoral, tibia and vertebra cancellous bones are assessed using Metris (XTek) Benchtop 160Xi CT scanner (University of Southampton) and vertebra cortical bone is assessed using MicroCT-40 computed tomography system (Scanco Medical, Basserdorf, Switzerland). […] Micro-CT analysis also allows for the determination of various quality properties of the cortical bone. The bone fragility is influenced not only by the architecture but also by the tissue “quality”. The strength of a bone as an organ depends on the material properties of bone as a tissue. Stiffness, or the resistance of the whole bone to deformation by a load, is a key material property and requires a destructive mechanical technique if measurements are done in vivo. The non-destructive analysis of the volumetric bone mineral density of cortical bone (cortical vBMD) by micro CT has an approximately linear relationship with the stiffness of the cortical bone. Cortical thickness (C.Th) is one of the variables that helps to evaluate the modeling-derived changes provoked by growth. The cortical porosity (C.Sp) reflects the intracortical remodeling in the bone. […] Results are expressed as mean±SEM, and the probability level at which the differences are considered significant is set at p<0.05. […]

The mark [4] stands for this setting: at delivery, appendicular bones.

As to `O=C([O-])[O-].[Ca+2]` [Calcium, calcium carbonate], in the assay on rat offspring [1], the “lumbar vertebra BMC with respect to Control group” value is on record as “no differences” and the “lumbar vertebra BMD with respect to Control group” value is listed as “no differences”. In the assay on rat offspring [2] (adolescence), the “vertebra BV/TV enhanced in comparison with Control group” value was 22%, the “vertebra trabecular separation respective to Control group” value is “significant decrease” and the “vertebra trabecular thickness enhanced in comparison with Control group” value worked out at 17%. Moreover, in the assay on rat offspring [2] (setting [4]), the “trabecular number of femur and tibia vs Control group” value is “greater”; the “trabecular thickness of femur and tibia vs Control group” value was “lower”. In addition, the “femur length represented versus body weight” value in the assay with rat offspring [2] (at delivery, no difference to Control group) is listed as 0.572±0.04. For the same compound, in the assay on rat offspring [2] (at delivery, statistical differences not achieved), the “trabecular separation of femur and tibia vs Control group” value was “decrease”. In addition, in the assay with rat offspring [2] (at weaning), the “increase in vertebra trabecular thickness respective to Control group” value is around 30%, the “vertebra BV/TV ratio respective to Control group” value was “statistically different” and the “vertebra trabecular separation respective to Control group” value was “statistically different”. In addition, in the assay on rat offspring [3], the vertebra cortical porosity result was “decrease”, the “vertebra cortical vBMD” value is recorded as “increase” and the vertebrae cortical thickness entry is “without significantly affecting”.

Turning to Vitamin D, in the assay with rat offspring [1], the “lumbar vertebra BMC with respect to Control group” value is “no differences” and the “lumbar vertebra BMD with respect to Control group” value is “no differences”. The “whole body BMC relative to Control group” value with rat offspring [1] (at weaning) is recorded as “lower”. In addition, the “vertebra structural parameters (BV/TV, trabecular thickness)” value in the assay on rat offspring [2] (adolescence) is given as “No effect”. Moreover, the vertebra cortical features entry with rat offspring [3] is on record as “does not show any improvement”.

The values above are taken from patent US20120245121A1, “METHODS FOR IMPROVING BONE HEALTH IN INFANTS USING LONG CHAIN POLYUNSATURATED FATTY ACIDS” (ABBOTT LABORATORIES, priority 2011, published 2012).
